Test results from patent US20130123287A1, “CONTROL AGENT FOR SOFT ROT AND CONTROL METHOD FOR THE SAME” (ISHIHARA SANGYO KAISHA, LTD., priority 2010, published 2013).

Assays:
[1] = test system: soft rot of Chinese cabbage; assay: Test for controlling soft rot of Chinese cabbage, Example 2 / Comparative Example 2 (field, cultivar Harebutai 65); type: in vivo; conditions: 150 L/10 a sprayed onto planting holes before planting, 64 days after start
From the text: Frequency of the disease=[sigma(number of plants with the onset of the disease at each severity level*index of the onset of the disease)/(plants examined*4)]*100
Disease control value=[1-(frequency of the disease in the treated lot/frequency of the disease in the non-treated lot)]*100
• 0: No onset • 1: Onset in some of outer leaves (shippable) • 2: Onset in outer leaves and some of head leaves (by removing damaged parts, the resulting cabbage can be shipped as small cabbage but is ranked as grade B). • 3: Most of head leaves are inflicted with the onset of the disease or with severer damages (not shippable) • 4: Whole cabbage plant is inflicted with the onset of the disease and is dead.
200 g/l Azoxystrobin (Amistar 20 FLOWABLE [trade name], manufactured by Syngenta Japan K.K.) was adjusted to 500 g ai/10a (0.5 g/m^2, 2500 ml Product/10a) as the amount of the active ingredient and to 150 L/10a as the volume of diluent water.
30% w/w triflumizol (TRIFUMIN WP [trade name], manufactured by Nippon Soda Co., Ltd.) was adjusted to 500 g ai/10a (0.5 g/m^2, 1667 g Product/10a) as the amount of the active ingredient and to 150 L/10a as the volume of diluent water.
100 g/1 cyazofamid (RANMAN PLOWABLE [trade name], manufactured by Ishihara Sangyo Kaisha, Ltd.) was adjusted to 500 g ai/10a (0.5 g/m^2, 5000 ml Product/10a) as the amount of the active ingredient and to 150 L/10a as the volume of diluent water.
50% w/w penthiopyrad (GAIA WG [trade name], manufactured by Mitsui Chemicals Agro, Inc.) was adjusted to 500 g ai/10a (0.5 g/m^2, 1000 g Product/10a) as the amount of the active ingredient and to 150 L/10a as the volume of diluent water.
50 g/l flusulfamide (SCABLOCK SC [trade name], manufactured by Mitsui Chemicals Agro, Inc.) was adjusted to 500 g ai/10a (0.5 g/m^2, 10000 ml Product/10a) as the amount of the active ingredient and to 150 L/10a as the volume of diluent water.
400 g/1 chlorothalonil (Daconil 1000 [the trade name], manufactured by Sumitomo Chemical, Limited) was adjusted to 1000 g ai/10a (1.0 g/m^2, 2500 ml Product/10a) as the amount of the active ingredient and to 150 L/10a as the volume of diluent water.
(§1) After spreading an agricultural mulch-sheet and opening planting holes (diameter of about 5 cm) for permanent planting through the mulch-sheet, the spray solutions prepared as described above were sprayed onto the planting holes such that the amount of treated active ingredient of chlorothalonil was 1.0 g/m^2 (150 L per 10a) and the amount of each of the remaining spray solutions was 0.5 g/m^2 (150 L per 10a), followed by air-drying; subsequently, seedlings of Chinese cabbage (cultivar Harebutai 65) grown for 4 weeks in cell mold trays (128 holes/nursery box) were planted such that 19 seedlings were planted in each test lot having an area of 2.4 m^2 with two replications.
(§2) Preparation was performed by diluting streptomycin (Mycin 20 wettable powder solution [under the trade name] manufactured by Hokko Chemical Industry Co., Ltd.) with water to 1/1000.
(§3) In a field spread with the agricultural mulch-sheet, Chinese cabbage seedlings (cultivar: Harebutai 65) grown by the same method as in Example 2 were planted by the same method as in Example 2, for spraying the spray solution of streptomycin prepared above in (1) (at each spray volume of 300 L/10a) twice (27 days and 48 days after the planting of the seedlings) on the stems and leaves with a sprayer.
64 days after the start of the tests, all the plants in each lot were examined about the severity level of the disease to assess the frequency of the disease and the disease control value. In the same manner as described above, the frequency of the disease and the disease control value were determined. Additionally, soft rot is a disease with damages hardly controlled, so even a chemical at the level C determined by the tests of the effects can practically be used.

[2] = test system: bacteria causing the soft rot (Erwinia carotovora); assay: Inhibition test of growth of bacteria causing soft rot, Reference Test Example 3; type: cell-based; conditions: for formed colonies (growth state), grade: PSA medium, 27 degrees Celsius, 2 days; for inhibition of growth of Erwinia carotovora (in words): active ingredient concentration of 1,000 ppm
From the text: (§4) Inhibition test of growth of bacteria causing soft rot of potato An inhibition test of the growth of bacteria causing the soft rot was done, when a control agent was directly applied to the bacteria causing the soft rot. A given volume of each pesticide of triflumizol (TRIFUMIN WP [trade name] manufactured by Nippon Soda Co., Ltd.), chlorothalonil (Daconil 1000 [trade name], manufactured by Sumitomo Chemical Company, Limited) and streptomycin (Mycin Wettable powder [trade name] manufactured by Hokko Chemical Industry Co., Ltd.) was added together with a suspension of the bacteria causing the soft rot (Erwinia carotovora) to a preliminarily dissolved PSA culture medium (55 degrees Celsius) for subsequent thorough agitation, which was then spread on a plate for culturing at 27 degrees Celsius for 2 days, to examine the growth state. Subsequently, the formed colonies were examined according to the following three grades. • +: at the same level as the level of non-treated lot. Plus or minus: apparently less than the colonies of the non-treated lot. • −: almost no colonies observed.

[3] = test system: bacteria causing the soft rot (Erwinia carotovora); assay: Inhibition test of growth of bacteria causing soft rot, Reference Test Example 2; type: cell-based; conditions: for formed colonies (growth state), grade: PSA medium, 27 degrees Celsius, 2 days; for inhibition of growth of Erwinia carotovora (in words): active ingredient concentration of 1,000 ppm
From the text: as §4, with “azoxystrobin (Amistar-20 FLOWABLE [trade name], manufactured by Syngenta Japan K.K.), penthiopyrad (GAIA WG [trade name], manufactured by Mitsui Chemicals Agro, Inc.), flusulfamide (SCABLOCK SC” for “triflumizol (TRIFUMIN WP”, “Mitsui Chemicals Agro, Inc.),” for “Nippon Soda Co., Ltd.), chlorothalonil (Daconil 1000 [trade name], manufactured by Sumitomo Chemical Company, Limited)”, “lot.” for “lot. Plus or minus: apparently less than the colonies of the non-treated lot. • −: almost no colonies observed.”
(§5) Plus or minus: apparently less than the colonies of the non-treated lot. • −: almost no colonies observed.

[4] = test system: bacteria causing the soft rot (Erwinia carotovora); assay: Inhibition test of growth of bacteria causing soft rot, Reference Test Example 1; type: cell-based; conditions: for formed colonies (growth state), grade: PSA medium, 25 degrees Celsius, 4 days
Description: An inhibition test of the growth of bacteria causing the soft rot was done, when a control agent was directly applied to the bacteria causing the soft rot. A given volume of each pesticide of cyazofamid (RANMAN 400SC [trade name] manufactured by Ishihara Sangyo Kaisha, Ltd.), amisulbrom (LEIMAY FLOWABLE [trade name], manufactured by Nissan Chemical Industries, Ltd.) and streptomycin (Mycin Wettable powder [trade name] manufactured by Hokko Chemical Industry Co., Ltd.) was added together with a suspension of the bacteria causing the soft rot (Erwinia carotovora) to a preliminarily dissolved PSA culture medium (55 degrees Celsius) for subsequent thorough agitation, which was then spread on a plate for culturing at 25 degrees Celsius for 4 days, to examine the growth state. Subsequently, the formed colonies were examined according to the following three grades. • +: at the same level as the level of non-treated lot.
as §5

[5] = test system: soft rot of Chinese cabbage; assay: Test for controlling soft rot of Chinese cabbage, Example 1 / Comparative Example 1 (field, cultivar Muso); type: in vivo; conditions: 250 g ai/10 a, 150 L/10 a sprayed onto planting holes before planting, 54 days after start
Description: 200 g/l Azoxystrobin (Amistar 20 FLOWABLE [trade name], manufactured by Syngenta Japan K.K.) was adjusted to 250 g ai/10a (0.25 g/m^2, 1250 ml Product/10a) as the amount of the active ingredient and to 150 L/10a as the volume of diluent water.
100 g/l Cyazofamid (RANMAN FLOWABLE [trade name], manufactured by Ishihara Sangyo Kaisha, Ltd.) was adjusted to 250 g ai/10a (0.25 g/m^2, 2500 ml Product/10a) as the amount of the active ingredient and to 150 L/10a as the volume of diluent water.
177 g/l Amisulbrom (LEIMAY FLOWABLE [trade name], manufactured by Nissan Chemical Industries, Ltd.) was adjusted individually to 250 g ai/10a (0.25 g/m^2, 1412 ml Product/10a) as the amount of the active ingredient and to 150 L/10a as the volume of diluent water.
as §1, with “about 9” for “about 5”, “of each spray solution” for “of chlorothalonil”, “was 0.25” for “was 1.0 g/m^2 (150 L per 10a) and the amount of each of the remaining spray solutions was 0.5”, “cabbage (cultivar: Muso)” for “cabbage (cultivar Harebutai 65)”, “that 30” for “that 19”, “of 6” for “of 2.4”
as §2
as §3, with “Muso)” for “Harebutai 65)”, “1” for “2”, “1,” for “2,”, “three times (13 days, 20” for “twice (27”, “27” for “48”, “leaves.” for “leaves with a sprayer.”
54 days after the start of the tests, all the plants in each lot were examined about the severity level of the disease; according to the following equations, the ratio of the plants with the onset of the disease, the frequency of the disease, and the disease control value were calculated to determine and rank the effects at A to D levels. Because soft rot is a disease with damages hardly controlled, herein, even a chemical at the level C determined by the tests of the effects can practically be used.
Ratio of the plants with the onset of the disease=(Number of plants with the onset of the disease/number of plants examined)*100
Frequency of the disease=[sigma(number of plants with the onset of the disease at each severity level*index of the onset of the disease)/(plants examined*4)]*100 […]

Compound | Determination of effect ([1]; 500 g ai/10 a) | formed colonies (growth state), grade ([2]; 100 ppm active ingredient) | formed colonies (growth state), grade ([2]; 500 ppm active ingredient) | formed colonies (growth state), grade ([2]; 1000 ppm active ingredient) | inhibition of growth of Erwinia carotovora (in words) [2] | formed colonies (growth state), grade ([3]; 100 ppm active ingredient) | formed colonies (growth state), grade ([3]; 500 ppm active ingredient) | formed colonies (growth state), grade ([3]; 1000 ppm active ingredient) | inhibition of growth of Erwinia carotovora (in words) [3] | Determination of effect [5] | other results
CCCOC/C(=N\c1ccc(Cl)cc1C(F)(F)F)n1ccnc1 [Triflumizol, (E)-4-chloro-alpha,alpha,alpha-trifluoro-N-[1-imidazol-1-yl-2-propoxyethylidene]-o-to luidine] | C (C: Effective at low level (21 to 40 disease control value)) | +, + | +, + | +, + | never inhibited the growth | – | – | – | – | – | –
CC(C)CC(C)c1sccc1NC(=O)c1cn(C)nc1C(F)(F)F (racemic) [Penthiopyrad, (RS)-N-[2-(1,3-dimethylbutyl)-3-thienyl]-1-methyl-3-(trifluoromethyl)-1H-pyrazole-4-carboxamide] | C (C: Effective at low level (21 to 40 disease control value)) | – | – | – | – | +, + | +, + | +, + | never inhibited the growth | – | –
Cc1c(Br)c2ccc(F)cc2n1S(=O)(=O)c1ncn(S(=O)(=O)N(C)C)n1 [Amisulbrom, 3-[(3-bromo-6-fluoro-2-methyl-1H-indol-1-yl)sulfonyl]-N,N-dimethyl-1H-1,2,4-triazole-1-sulfoneamide] | – | – | – | – | – | – | – | – | – | C (C: Effective at low level (21 to 40 disease control value)) | formed colonies (growth state), grade ([4]; 100 ppm active ingredient): +, +; formed colonies (growth state), grade ([4]; 500 ppm active ingredient): +, +; formed colonies (growth state), grade ([4]; 1000 ppm active ingredient): +, +; inhibition of growth of Erwinia carotovora (in words) ([4]; active ingredient concentration of 1,000 ppm): never inhibited the growth
N#Cc1c(Cl)c(Cl)c(Cl)c(C#N)c1Cl [Chlorothalonil, 2,4,5,6-tetrachloro-1,3-benzene dicarbonitrile] | – | +, + | +, + | +, + | never inhibited the growth | – | – | – | – | – | Determination of effect ([1]; 1000 g ai/10 a): B (B: Effective (41 to 60 disease control value))
O=[N+]([O-])c1ccc(NS(=O)(=O)c2ccc(Cl)c(C(F)(F)F)c2)c(Cl)c1 [Flusulfamide, 2′, 4-dichloro-alpha,alpha,alpha-trifluoro-4′-nitro-m-toluenesulfone anilide] | B (B: Effective (41 to 60 disease control value)) | – | – | – | – | +, + | +, + | +, + | never inhibited the growth | – | –
CO/C=C(/C(=O)OC)c1ccccc1Oc1cc(Oc2ccccc2C#N)ncn1 [Azoxystrobin, methyl=(E)-2-{2-[6-(2-cyanophenoxy)pyrimidin-4-yloxy]phenyl}-3-methoxyacrylate] | B (B: Effective (41 to 60 disease control value)) | – | – | – | – | +, + | +, + | +, + | never inhibited the growth | C (C: Effective at low level (21 to 40 disease control value)) | –
